Consider nine compounds from PubChem BioAssay AID1963847 (Molecular Pharmacology Branch, DTP, NCI, 2024).

Molecules are shown by their SMILES. Several values for one entry are separate records, joined by “and”; a condition that tells them apart may be missing. Equal entries are not always repeated.

In this assay the test system is 415267-285-R-J2-PDC complex spheroid viability. As to the kind of experiment: Anticancer human tumor 415267-285-R-J2-PDC patient-derived breast carcinoma cell line growth inhibition [POLQ]. Conditions: for viability, T/C: stronger effect = lower value. How it is done: Multicellular complex tumor spheroid response to Polymerase (POL) inhibitors (novobiocin, ART-558, RP6685) in combination with a variety of drugs and investigational agents in selected tumor cell lines
The POL inhibitors (novobiocin, ART-558, and RP6685) were evaluated both individually and in combination with standard of care and investigational anticancer small molecules within a complex spheroid model of solid tumors. . Complex spheroids include a stromal component modeled by human endothelial cells (HUVEC) and fibroblasts modeled by human mesenchymal stem cells (MSCs). The concentration ranges selected for each drug and investigational agent were based upon clinically achievable concentrations if the clinical Cmax of the agent was known.
Compounds. The drugs and investigational agents: novobiocin (NSC847541), ART-558 (NSC835418), RP-6685 (NSC848927), peposertib (NSC802822), ceralasertib (NSC780249), elimusertib (NSC800525), camonsertib (NSC841442), AZD-1390 (NSC803789), olaparib (NSC753686), talazoparib (NSC767125), rucaparib (NSC756644), sotorasib (NSC818433), MRTX-1133 (NSC836407), SN-38 (NSC673596), topotecan (NSC609699), epotoside (NSC141540), doxorubicin (NSC123127), gemcitabine (NSC613327), 5-fluorouracil (NSC19893), paclitaxel (NSC125973), vemurafenib (NSC761431), MSA-2 (NSC828583), SN-011 (NSC837082), adavosertib (NSC754352), prexasertib (NSC758257), carboplatin (NSC241240) and oxaliplatin (NSC266046), were obtained from the National Cancer Institute (NCI) Developmental Therapeutics Program Chemical Repository (21). The FDA-approved anticancer drug set is available from the Developmental Therapeutics Program at https://dtp.cancer.gov/organization/dscb/obtaining/. […] The stock solutions were prepared in dimethyl sulfoxide (DMSO, Sigma-Aldrich, St. Louis, MO, cat. D2650), except for the platinum compounds which were prepared in saline (Quality Biological, Gaithersburg, MD, cat. 114-055-101), at 800-fold the tested concentration and stored at -70 degrees C prior to their use. All drugs and investigational agents were tested over a range starting from a high concentration at or near the clinical Cmax and decreasing in half-log increments. If the clinical Cmax for an agent had not been determined, the highest concentration tested was 10 microM, except for SN-38, which was tested at a high concentration of 1 microM.
Cell Culture. All cells were maintained in an incubator at 37 degrees C and 5% CO2 with 95% humidity. The PDC lines were cultured according to standard operating procedures established by the NCI PDMR (https://pdmr.cancer.gov). Table 3 of the manuscript, lists the cell lines along with the number of the three cell types plated to form the mct-spheroids and media for tumor cell growth. After thawing, all PDC lines, except 997537-175-T-J1-PDC and 415267-285-R-J2-PDC, were cultured in Matrigel-coated flasks prepared with a working solution of 1X Ham's F-12 nutrient mix, without supplementation (Thermo Fisher Scientific, cat. 11765054), 100 U/mL penicillin-streptomycin (Thermo Fisher Scientific, cat. 15140122), and 2.5% Matrigel (Corning Inc., Corning, NY, cat. 354248) for the first three passages. The two PDC lines 997537-175-T-J1-PDC and 415267-285-R-J2-PDC were cultured on uncoated flasks. The 857933-349-R-J2-PDC line was cultured in 6C/Colon 1B media containing advanced DMEM/F-12 (Thermo Fisher Scientific, cat. 12634028), 10 mM HEPES (Thermo Fisher Scientific, cat. 15630080), 1X GlutaMAX supplement (Thermo Fisher Scientific, cat. 35050061), 0.1 mg/mL primocin (InvivoGen, San Diego, CA, cat. ant-pm-2), 10% defined fetal bovine serum, heat inactivated (HyClone Laboratories Inc., Logan, UT, cat. SH30070.03HI), 50% L-WRN conditioned media (ATCC, cat. CRL-3276), 1.25 mM N-Acetyl-L-cysteine (Sigma-Aldrich, cat. A9165), 10 mM nicotinamide (Sigma-Aldrich, cat. N0636), 1X B-27 supplement (Thermo Fisher Scientific, cat. 17504044), 1X N-2 supplement (Thermo Fisher Scientific, cat. […]
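Further: spheroids exposed to compounds for one week before readout.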
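Wherever viability, T/C is given: luminescence used as stand-in measure of viable cells.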

By viability, T/C is commonly meant the ratio of treated to control. As a reminder, the IC50 is the concentration that gives 50% inhibition. For `C#Cc1c(F)ccc2cc(O)cc(-c3ncc4c(N5CC6CCC(C5)N6)nc(OCC56CCCN5CC(F)C6)nc4c3F)c12` (configuration not stated), the viability, T/C reads like this: (compound 0.0316 µM) 106% and 95.4% and 97.2%; (compound 0.1 µM) 103% and 112% and 92.5%; (compound 0.316 µM) 102% and 106% and 94.2%; (compound 1 µM) 107% and 109% and 97.7%; (compound 3.16 µM) 106% and 91.5% and 101%; (compound 10 µM) 101% and 98% and 104%. Besides, the IC50 (curve of compound) is greater than 10 µM.

As to `C=CC(=O)N1CCN(c2nc(=O)n(-c3c(C)ccnc3C(C)C)c3nc(-c4c(O)cccc4F)c(F)cc23)C(C)C1` (configuration not stated), the viability, T/C was 88.5% and 95.7% and 91.3% (compound 0.0316 µM); 105% and 106% and 98.2% (compound 0.1 µM); 97.6% and 105% and 93.3% (compound 0.316 µM); 91% and 116% and 101% (compound 1 µM); 98.9% and 108% and 113% (compound 3.16 µM); 103% and 107% and 96.3% (compound 10 µM). The IC50 (curve of compound) was greater than 10 µM.

Regarding `CC1COCCN1c1cc(C2(O)CC3CCC(C2)O3)c2cnn(-c3ccn[nH]3)c2n1` (configuration not stated), the viability, T/C is 18.3% and 19.4% and 19.9% (compound 0.0316 µM); 6.66% and 6.95% and 6.71% (compound 0.1 µM); 5.68% and 5.24% and 4.27% (compound 0.316 µM); 3.96% and 5.04% and 3.53% (compound 1 µM); 6.45% and 6.44% and 3.52% (compound 3.16 µM); 4.11% and 4.93% and 2.88% (compound 10 µM). The IC50 (curve of compound) was less than 0.0316 µM.

As to `CCc1cc2c(N3CCc4c(cc(Cn5ccnc5)cc4-c4cn(C)nc4C(F)(F)F)C3=O)cc(C)nc2c(OC)n1`, the viability, T/C (compound 0.0316 µM) was 84.8% and 99.7% and 90.9%; the viability, T/C (compound 0.1 µM) was 89.5% and 98.3% and 92.6%; the viability, T/C (compound 0.316 µM) is 74.6% and 79% and 86.6%; the viability, T/C (compound 1 µM) is 80.3% and 82.8% and 91.5%; the viability, T/C (compound 3.16 µM) is 71.9% and 84% and 83.9%; the viability, T/C (compound 10 µM) was 69% and 78.6% and 69.5%. Under “curve of compound”, the IC50 was greater than 10 µM.

On to `CCc1cc2c(N3CCc4c(cc(Cn5ccnc5)cc4-c4cn(C)nc4C(F)(F)F)C3=O)ccnc2c(OC)n1`, for which the viability, T/C is, setting by setting: (compound 0.0316 µM) 82.8% and 92.9% and 84.3%; (compound 0.1 µM) 82.9% and 92.8% and 96.7%; (compound 0.316 µM) 85.8% and 89.2% and 90.2%; (compound 1 µM) 83.7% and 94.3% and 90%; (compound 3.16 µM) 82.2% and 82.6% and 86.5%; (compound 10 µM) 75.7% and 84.4% and 75.4%. Under “curve of compound”, the IC50 was greater than 10 µM.

Consider `COc1cc2cc(C(=O)CCC(=O)O)sc2cc1OC`, for which the viability, T/C reads like this: (compound 0.0316 µM) 99.2% and 104% and 92.9%; (compound 0.1 µM) 101% and 104% and 90.8%; (compound 0.316 µM) 93.2% and 88% and 110%; (compound 1 µM) 104% (2×) and 99.6%; (compound 3.16 µM) 94.7% and 99.9% and 99.6%; (compound 10 µM) 111% and 99.6% and 109%. Also, where the note is “curve of compound”, the IC50 is greater than 10 µM.

For `Nc1ccn(C2OC(CO)C(O)C2(F)F)c(=O)n1` (configuration not stated), the viability, T/C by setting is: (compound 0.1 µM) 5.29% and 5.02% and 7.12%; (compound 0.316 µM) 6.27% and 4.87% and 6.14%; (compound 1 µM) 5.28% and 7.75% and 7.66%; (compound 3.16 µM) 5.29% and 4.37% and 5.37%; (compound 10 µM) 6.07% and 4.68% and 5.14%. Also, the IC50 (curve of compound) was less than 0.0316 µM.

As to `O=C(Nc1ccc(O)c(NS(=O)(=O)c2ccc(F)cc2)c1)c1ccc(-c2ccccc2)cc1`, the viability, T/C was 111% and 102% and 103% (compound 0.0316 µM); 108% and 97.2% and 98.4% (compound 0.1 µM); 107% and 98.6% and 103% (compound 0.316 µM); 92.3% and 107% and 105% (compound 1 µM); 109% and 101% and 98.1% (compound 3.16 µM); 68.7% and 71.7% and 46.8% (compound 10 µM). Under “curve of compound”, the half-inhibitory concentration (IC50) was > 10 µM and 9.32 µM.

As for `CC(=O)O[C@H]1C(=O)[C@@]2(C)[C@H]([C@H](OC(=O)c3ccccc3)[C@]3(O)C[C@H](OC(=O)[C@H](O)[C@@H](NC(=O)c4ccccc4)c4ccccc4)C(C)=C1C3(C)C)[C@]1(OC(C)=O)CO[C@@H]1C[C@@H]2O` + COC1C(OC(N)=O)C(O)C(Oc2ccc3c(O)c(NC(=O)c4ccc(O)c(CC=C(C)C)c4)c(=O)oc3c2C)OC1(C)C, the IC50 (curve of first compound, second compound 0.0316 µM) was less than 0.00949 µM; the half-inhibitory concentration (IC50) (curve of first compound, second compound 0.1 µM) was less than 0.00949 µM; the IC50 (curve of first compound, second compound 0.316 µM) was less than 0.00949 µM; the IC50 (curve of first compound, second compound 1 µM) is less than 0.00949 µM; the 50% inhibitory concentration (IC50) (curve of first compound, second compound 3.16 µM) is less than 0.00949 µM; the half-maximal inhibitory concentration (IC50) (curve of first compound, second compound 10 µM) was less than 0.00949 µM. Further, the viability, T/C (second compound 0.0316 µM, first compound 0.00949 µM) is 13.6%; the viability, T/C (second compound 0.0316 µM, first compound 0.03 µM) is 9.68%; the viability, T/C (second compound 0.0316 µM, first compound 0.0949 µM) is 8.14%; the viability, T/C (second compound 0.0316 µM, first compound 0.3 µM) is 6.55%; the viability, T/C (second compound 0.0316 µM, first compound 0.949 µM) was 8.38%; the viability, T/C (second compound 0.0316 µM, first compound 3 µM) was 8.03%. In addition, the viability, T/C was 11% (second compound 0.1 µM, first compound 0.00949 µM); 8.15% (second compound 0.1 µM, first compound 0.03 µM); 7.43% (second compound 0.1 µM, first compound 0.0949 µM); 7.95% (second compound 0.1 µM, first compound 0.3 µM); 8.29% (second compound 0.1 µM, first compound 0.949 µM); 9.45% (second compound 0.1 µM, first compound 3 µM). For the same compound, the viability, T/C by setting is: (second compound 0.316 µM, first compound 0.00949 µM) 13.1%; (second compound 0.316 µM, first compound 0.03 µM) 9.7%; (second compound 0.316 µM, first compound 0.0949 µM) 7.34%; (second compound 0.316 µM, first compound 0.3 µM) 8.56%; (second compound 0.316 µM, first compound 0.949 µM) 8.09%; (second compound 0.316 µM, first compound 3 µM) 7.17%. Further, the viability, T/C is 12.9% (second compound 1 µM, first compound 0.00949 µM); 8.82% (second compound 1 µM, first compound 0.03 µM); 8.23% (second compound 1 µM, first compound 0.0949 µM); 8.01% (second compound 1 µM, first compound 0.3 µM); 8.58% (second compound 1 µM, first compound 0.949 µM); 7.75% (second compound 1 µM, first compound 3 µM). The viability, T/C is 13% (second compound 3.16 µM, first compound 0.00949 µM); 10.4% (second compound 3.16 µM, first compound 0.03 µM); 8% (second compound 3.16 µM, first compound 0.0949 µM); 7.65% (second compound 3.16 µM, first compound 0.3 µM); 8.33% (second compound 3.16 µM, first compound 0.949 µM); 8.3% (second compound 3.16 µM, first compound 3 µM). For the same compound, the viability, T/C is, setting by setting: (second compound 10 µM, first compound 0.00949 µM) 24.1%; (second compound 10 µM, first compound 0.03 µM) 9.1%; (second compound 10 µM, first compound 0.0949 µM) 7.75%; (second compound 10 µM, first compound 0.3 µM) 8.73%; (second compound 10 µM, first compound 0.949 µM) 6.75%; (second compound 10 µM, first compound 3 µM) 9.23%.
